Results: US20070129379A1 (priority 2005, published 2007)

Molecular target: T1, HIV-integrase (Human immunodeficiency virus type 1 group M subtype B, UniProt P12497)
T1 construct: Recombinant integrase (0.26 ng) was incubated with the beads
Experiment: HIV-Integrase Inhibition Activity (SPA strand transfer assay)
Assay type: biochemical
Details: recombinant integrase, biotin labeled substrate DNA on SPA beads, P33 labeled target DNA
Protocol: HIV-Integrase Inhibition Activity. To evaluate in-vitro activity against HIV-integrase, 5 pmole of biotin labeled substrate DNA was bound to 100 μg of Streptavidin coated PVT SPA beads (Amersham Pharmacia Biotech). Recombinant integrase (0.26 ng) was incubated with the beads for 90 min at 37° C. Unbound enzyme was removed by washing the complex followed by addition of inhibitors and 0.1 fmol of P33 labeled target DNA. The reaction was stopped by adding EDTA to a final concentration of 10 mM. Samples were counted in TopCountNXT (Packard) and the CPM was used as a measure of integration. The reaction condition was as described in A. Engleman and R. Craige, J. Virol. 69, 5908-5911 (1995). The sequences of substrate and target DNA were described in Nucleic Acid Research 22, 1121-1122 (1994). Activity equal to A refers to a compound having IC50=0.002 to 0.10 μM while B and C denote compounds having IC50=0.1 to 1.0 μM and IC50≧1.0 μM respectively.

| Compound | IC50 [nM] |
| --- | --- |
| COC(C)(C)c1nc(C(=O)NCc2ccc(F)cc2)c(O)c(=O)n1C [Example 1, N-(4-Fluorobenzyl)-5-hydroxy-2-(2-methoxypropan-2-yl)-1-methyl-6-oxo-1,6-dihydropyrimidine-4-carboxamide] | 2 to 100 |
| COC(C)(C)c1nc(C(=O)NCc2ccc(F)c(C)c2)c(O)c(=O)n1C [Example 2] | 2 to 100 |
| CC(C)(C)c1nc(O)c(O)c(C(=O)NCc2ccc(F)cc2)n1 [Example 3, 2-tert-Butyl-5-hydroxy-6-oxo-1,6-dihydro-pyrimidine-4-carboxylic acid 4-fluoro-benzylamide] | 2 to 100 |
| Cn1c(C(C)(C)C)nc(C(=O)NCc2ccc(F)cc2)c(O)c1=O [Example 4, 2-tert-Butyl-5-hydroxy-1-methyl-6-oxo-1,6-dihydro-pyrimidine-4-carboxylic acid 4-fluoro-benzylamide] | 2 to 100 |
| CSCCCCC(C)(C)c1nc(C(=O)NCc2ccc(F)cc2)c(O)c(=O)n1C [Example 5] | 2 to 100 |
| Cn1c(C2(C)CCCS2)nc(C(=O)NCc2ccc(F)cc2)c(O)c1=O (stereo not drawn) [Example 6, N-(4-Fluorobenzyl)-5-hydroxy-1-methyl-2-(2-methyl-tetrahydrothiophen-2-yl)-6-oxo-1,6-dihydropyrimidine-4-carboxamide] | 2 to 100 |
| Cn1c(C2(C)CCCS2)nc(C(=O)NCc2ccc(F)cc2-n2cncn2)c(O)c1=O (stereo not drawn) [Example 7, N-(4-Fluoro-2-(1H-1,2,4-triazol-1-yl)benzyl)-5-hydroxy-1-methyl-2-(2-methyl-tetrahydrothiophen-2-yl)-6-oxo-1,6-dihydropyrimidine-4-carboxamide] | 2 to 100 |
| Cn1c(C2(C)CCCS2)nc(C(=O)NCc2ccc(F)cc2S(C)(=O)=O)c(O)c1=O (stereo not drawn) [Example 8] | 2 to 100 |
| Cn1c(C2(C)CCCO2)nc(C(=O)NCc2ccc(F)cc2)c(O)c1=O (stereo not drawn) [Example 9] | 2 to 100 |
| Cn1c(C2(C)CCCO2)nc(C(=O)NCc2ccc(F)cc2-n2cncn2)c(O)c1=O (stereo not drawn) [Example 10] | 2 to 100 |
| Cn1c(C2(C)CCCO2)nc(C(=O)NCc2ccc(F)cc2S(C)(=O)=O)c(O)c1=O (stereo not drawn) [Example 11] | 2 to 100 |
| Cn1c(C2(OCCO)CCC2)nc(C(=O)NCc2ccc(F)cc2)c(O)c1=O [Example 12, 5-Hydroxy-2-[1-(2-hydroxy-ethoxy)-cyclobutyl]-1-methyl-6-oxo-1,6-dihydro-pyrimidine-4-carboxylic acid 4-fluoro-benzylamide] | 2 to 100 |
| Cn1c(C2(OCCO)CCC2)nc(C(=O)NCc2ccc(F)cc2-n2cncn2)c(O)c1=O [Example 13] | 2 to 100 |
| CSCCOC1(c2nc(C(=O)NCc3ccc(F)cc3-n3cncn3)c(O)c(=O)n2C)CCC1 [Example 14, N-(4-Fluoro-2-(1H-1,2,4-triazol-1-yl)benzyl)-5-hydroxy-1-methyl-2-(1-(2-(methylthio)-ethoxy)cyclobutyl)-6-oxo-1,6-dihydropyrimidine-4-carboxamide] | 2 to 100 |
| COCCOC1(c2nc(C(=O)NCc3ccc(F)cc3)c(O)c(=O)n2C)CCC1 [Example 15, N-(4-Fluorobenzyl)-5-hydroxy-2-(1-(2-methoxyethoxy)cyclobutyl)-1-methyl-6-oxo-1,6-dihydropyrimidine-4-carboxamide] | 2 to 100 |
| COCCOC1(c2nc(C(=O)NCc3ccc(F)cc3-n3cncn3)c(O)c(=O)n2C)CCC1 [Example 16, N-(4-Fluoro-2-(1H-1,2,4-triazol-1-yl)benzyl)-5-hydroxy-2-(1-(2-methoxyethoxy)cyclobut-yl)-1-methyl-6-oxo-1,6-dihydropyrimidine-4-carboxamide] | 2 to 100 |
| COCCOC1(c2nc(C(=O)NCc3ccc(F)cc3S(C)(=O)=O)c(O)c(=O)n2C)CCC1 [Example 17, N-(4-Fluoro-2-(methylsulfonyl)benzyl)-5-hydroxy-2-(1-(2-methoxyethoxy)cyclobutyl)-1-methyl-6-oxo-1,6-dihydropyrimidine-4-carboxamide] | 2 to 100 |
| COCCOC1(c2nc(C(=O)NCc3ccc(F)cc3S(=O)(=O)N(C)C)c(O)c(=O)n2C)CCC1 [Example 18] | 2 to 100 |
